According to patent US10000511B2, “Small molecules for the modulation of MCL-1 and methods of modulating cell death, cell division, cell differentiation and methods of treating disorders” (priority 2010, dated 2018):
Like-named read-outs stand apart in the source and are kept apart here.

Experiments:
[1] = test system: MCL-1ΔNΔC; experiment: Competitive fluorescence polarization binding screen, FITC-MCL-1 SAHB/MCL-1ΔNΔC; details: selectivity for MCL-1ΔNΔC over BCL-XLΔC (BCL-XL % Bound minus MCL-1 % Bound)
[2] = molecular target: BCL-XLΔC (Homo sapiens, UniProt Q07817); experiment: Competitive fluorescence polarization binding screen, FITC-BAD BH3/BCL-XLΔC; details: FITC-BAD BH3/BCL-XLΔC interaction
Chain of BCL-XLΔC (Q07817 1-212 limits assumed, stated change not applied): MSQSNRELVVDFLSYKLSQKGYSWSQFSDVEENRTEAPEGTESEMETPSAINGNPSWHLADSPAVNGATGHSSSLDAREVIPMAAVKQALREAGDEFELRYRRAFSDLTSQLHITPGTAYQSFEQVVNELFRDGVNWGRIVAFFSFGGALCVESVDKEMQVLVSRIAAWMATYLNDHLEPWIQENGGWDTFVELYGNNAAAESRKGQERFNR

[3] = molecular target: T1, MCL-1ΔNΔC (Homo sapiens, UniProt Q07820); experiment: Competitive fluorescence polarization binding screen, FITC-MCL-1 SAHB/MCL-1ΔNΔC; design: the C-terminal alpha-helix was deleted from each of these constructs to facilitate protein expression and purification; an additional N-terminal deletion of MCL-1 was performed; GST (N, cleaved yes); made in house; details: FITC-MCL-1 SAHB/MCL-1ΔNΔC interaction
T1 sequence (Q07820 172-320 limits assumed, stated change not applied): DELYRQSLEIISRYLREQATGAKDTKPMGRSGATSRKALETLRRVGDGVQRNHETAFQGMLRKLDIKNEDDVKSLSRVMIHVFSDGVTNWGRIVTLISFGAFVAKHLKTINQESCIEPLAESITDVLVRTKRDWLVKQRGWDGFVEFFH

[4] = molecular target: T1, MCL-1ΔNΔC; details: pre-incubation, dilution, re-concentration, FITC-BID BH3 FP
Protocol: A small sample was taken as a pre-dilution control. Compound-treated protein and unmodified protein were then diluted to a volume of 20 mL, and subsequently re-concentrated to 500 mL using 10K centrifugal filter units (Amicon). FP binding analysis was performed as described above by adding serial dilutions of compound-modified MCL-1 and unmodified MCL-1, both before and after dilution, followed by FITC-BID BH3 (15 nM) to a 96-well black flat bottom plate (Costar). FP measurements and analyses are then performed as described above.
Briefly, MCL-1ΔNΔC was pre-incubated with the small molecule inhibitors prior to dilution with buffer. The solution was concentrated to its original volume and fluorescence polarization was performed. Compounds that bind covalently will remain bound to the protein, whereas compounds that bind reversibly will be exchanged upon dilution.

Compound | Spec Values [1] | also measured
Cc1c(Cl)cccc1N1C(=O)CC(N2CCCc3ccccc32)C1=O (stereo not shown) | 48.92 | 
Cc1ccc(C)n1-c1cc(Cl)ccc1C(=O)O | 79.84 | 
C/C(=N\OCc1ccc(C(=O)N2CCCCC2)o1)c1cccc(C(F)(F)F)c1 | 55.34 | 
CCSC1=C(C#N)C(=O)NC(c2ccc(N(C)C)cc2)S1 (stereo not shown) | 49.2! | 
O=c1c(O)c(-c2ccc(O)c(O)c2)oc2cc(O)cc(O)c12 | 88.65 | 
CCN(CC)c1cc(C)c2cc(NC(=O)/C=C/c3ccco3)ccc2n1 |  | BCL-XL % Bound [2]: 79.88%; MCL-1% Bound [3]: 11.73%
Cc1ccc(/C=C2\C(=O)Nc3ccc(Br)cc32)o1 [drawing 54] | 58.85 | MCL-1% Bound [3]: 18.74%
O=C(/C=C/c1ccco1)NC(=S)Nc1ccccc1C(F)(F)F | 52.25 | 
Cc1cc(NC(=O)/C=C/c2ccco2)n(-c2nc3ccccc3n2Cc2cccc(Oc3ccccc3)c2)n1 | 48.1 | 
O=C(/C=C/c1ccc(Br)o1)OCC(=O)c1c[nH]c2ccccc12 | 52.14 | BCL-XL % Bound [2]: 105.6%
CC1CCN(C2=NN3C(=N)/C(=C\c4ccc(SCc5ccco5)o4)C(=O)N=C3S2)CC1 | 70.38 | 
Cc1ccc2c(c1C)NC(C(=O)O)C1CC=CC21 (stereo not shown) |  | MCL-1% Bound [3]: 14.5%
O=C(CCN1C(=O)/C(=C\C=C\c2ccco2)SC1=S)Nc1ccc(C(=O)O)c(O)c1 | 54.54 | 
COc1ccc(/C=c2\s/c(=C\C(=O)c3ccco3)[nH]c2=O)cc1O |  | BCL-XL % Bound [2]: 263.7%
Cc1cc2c(C(C)C)c(O)c(O)c(C=O)c2c(O)c1-c1c(C)cc2c(C(C)C)c(O)c(O)c(C=O)c2c1O [Gossypol] |  | mode of binding to MCL-1ΔNΔC (reversible/non-covalent vs covalent) [4]: bound reversibly; mode of binding to MCL-1ΔNΔC (reversible/non-covalent vs covalent) ([4]; listed as 1570G15): engages MCL-1 through non-covalent interactions
CN1CCN(C(c2ccccn2)c2c(-c3ccccc3)n(O)c3ccccc23)CC1 (stereo not shown) | 49.28 | 
Oc1cccnc1NC(c1ccc(F)cc1)c1ccc2cccnc2c1O (stereo not shown) | 71.24 | 
COc1cc(C(c2nnnn2C2CCCCC2)N2CCc3ccccc3C2)ccc1O (stereo not shown) | 48.33 | 
Cc1ccc(/C=C2\C(=O)Nc3ccc(Br)cc32)o1 [drawing 279] | 58.85 | 
CCSC1=C(C#N)C(=O)NC(c2ccc(O)cc2)S1 (stereo not shown) |  | BCL-XL % Bound [2]: 84.82%
COc1ccc(-c2nc3scc(CCNC(=O)/C=C/c4ccco4)n3n2)cc1 | 46.24 | 
